Structures are written as SMILES.

The target of one experiment is T1, Estrogen Receptor (ER) (Rattus norvegicus, UniProt P06211).
T1 construct: using rat uterine cytosol as a source of ER; from tissue; host or cells: rat uterus, cytosol fraction (30000 x g supernatant)
T1 sequence (P06211 1-600): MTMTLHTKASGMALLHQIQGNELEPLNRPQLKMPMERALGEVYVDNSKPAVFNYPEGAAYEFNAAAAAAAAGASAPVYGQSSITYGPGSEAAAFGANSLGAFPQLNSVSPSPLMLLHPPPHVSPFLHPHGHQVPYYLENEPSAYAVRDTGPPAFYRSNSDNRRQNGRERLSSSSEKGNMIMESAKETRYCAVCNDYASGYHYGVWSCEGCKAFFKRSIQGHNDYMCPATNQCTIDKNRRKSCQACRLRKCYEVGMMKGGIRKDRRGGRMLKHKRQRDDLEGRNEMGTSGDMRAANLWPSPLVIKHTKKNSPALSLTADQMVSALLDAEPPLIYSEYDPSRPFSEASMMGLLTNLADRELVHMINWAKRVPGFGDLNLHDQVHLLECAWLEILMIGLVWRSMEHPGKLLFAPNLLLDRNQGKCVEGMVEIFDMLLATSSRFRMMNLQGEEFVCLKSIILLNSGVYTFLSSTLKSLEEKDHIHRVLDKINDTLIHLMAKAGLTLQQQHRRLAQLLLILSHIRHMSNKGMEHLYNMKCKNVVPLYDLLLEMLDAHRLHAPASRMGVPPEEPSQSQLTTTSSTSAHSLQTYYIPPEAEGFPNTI
In words: Estrogen receptor binding assay, 3H-estradiol displacement from rat uterine cytosol. The conditions noted are these: 3H-estradiol displacement, cytosolic preparations of rat uterus; pIC50 of 4.00 = inactive; read-out: ER-RLB pIC50 (converted). The procedure: Uteri (6-10 per batch) were isolated from Brown Norway rats (250-350g), washed free from blood in saline and homogenised in 10 mM Tris buffer (pH 7.4, 1.5 mM EDTA, 10% w/v glycerol, 1 mM phenylmethylsulfonylfluoride) using an Ultra Turrax homogeniser for 3 by 15 s bursts with intervals of 1 min on ice.
Nuclear material and cellular debris were removed by centrifugation at 750×g at 4° C. for 10 min (Sorvall RT7); the cytosol component was prepared by centrifugation at 30000×g for 120 min at 4° C. in a Beckman JM1 centrifuge. The cytosol was diluted to approximately 1 mg/ml protein (rat uterine extract) determined using the Bradford method (Biorad).
Separation of bound from free radioligand was achieved by the addition of 500 μL of dextran-coated charcoal (400 mg dextran clinical grade C and 2g of charcoal, Norit A in 100 mL of Tris buffer) and centrifugation at 4° C. in a Sorval RT7 at 2000×g for 10 min.

Experiment [1] relates to Human airway smooth muscle (HASM) cells. In words: Thrombin-induced proliferation of human airway smooth muscle (HASM) cells, cell number after 48 h. The format is cell-based. Conditions: for IC50: Homo sapiens, negative log of the concentration that reduces the thrombin-induced proliferative response by 50%, pIC50 of 4.00 = inactive, read-out: HASM-Thr pIC50 (converted); for HASM- Thr pIC25 / HASM- Thr pIC75: two site model, thrombin-induced proliferation; for HASM- Thr pIC25: first phase (inhibition up to 50%); for HASM- Thr pIC75: second phase (inhibition up to 100%). The procedure:
Human airway smooth muscle (HASM) cells were cultured from macroscopically normal bronchi (0.5-2 cm diameter) obtained from lung resection or heart-lung transplant specimens provided by the Alfred Hospital (Melbourne) according to methods published in detail previously (Fernandes et al., 1999).
Approximately 0.1 g of smooth muscle was stripped from the wall of the bronchus for each cell culture. Dissected tissue was immersed in Dulbecco's modified Eagle's medium (DMEM) (Flow Laboratories, Scotland), supplemented with 100 U/mL penicillin G (CSL, Australia) and 100 ug/mL streptomycin (CSL, Australia). The tissue was rinsed in phosphate buffered saline (PBS; Oxoid, England) and the airway smooth muscle was chopped into 2 mm^3 pieces and digested for 2 hours in DMEM containing elastase (0.5 mg/mL: Worthington Biochemical, USA) followed by a 12 hour incubation in DMEM containing collagenase (1 mg/mL) (Worthington Biochemical, USA), at 37° C. with agitation.
The resulting cell suspension was centrifuged and washed three times in phosphate buffered saline (PBS). Following the last centrifugation step, the cells were resuspended in 25 mL of DMEM supplemented with L-glutamine (2 mM: Sigma, USA), penicillin G (100 U/mL), streptomycin (100 μg/mL), amphotericin B (2 μg/mL: Wellcome, UK) and heat-inactivated FCS (10% v/v: CSL, Australia) and seeded into 25 cm^2 culture flasks. The primary isolates were incubated for 7 to 14 days to reach confluence.
Cells were harvested weekly by 10 min exposure to trypsin (0.5%: CSL, Australia) and EDTA (1 mM in PBS: BDH, Australia) and passaged at a 1:3 ratio into 75 cm^2 flasks.
The activity of the compounds has been established in cell culture by exploring their effects on mitogen-induced increases in cell number. We investigated the effects of 2MEO and its analogues, 4NO and 4NOM, on the proliferation of HASM cells in response to the proliferative stimulus of either thrombin of basic fibroblast growth factor (bFGF). Cells were seeded onto 6-well plates at a density of 1.5×10^4 cells cm^2, made quiescent by removal of serum-containing media for 24 hours and then stimulated for 48 h with either thrombin (0.3 U/ml) or bFGF (300 pM). The test compounds were pre-incubated with HASM cells for 30 minutes before the addition of thrombin. At the end of the 48 hour incubation period, cells were detached from the culture plate by trypsin (0.5% w/v in PBS containing 1 mM EDTA), incubated for 5 minutes at ambient temperature in PBS containing 0.5% (w/v) trypan blue, washed twice (2% FCS in PBS), isolated by centrifugation (12,000×g, 5 min) and resuspended in 200 μl 2% FCS in PBS for counting in a haemocytometer chamber.
Data are expressed as a percentage of the cell number in vehicle treated wells and are presented as the mean and standard error of the mean.
The potency of the compounds in regulating thrombin-induced proliferation of human airway smooth muscle (HASM) was assessed in cells maintained in culture as described above. The potencies are presented as pIC50 values (Column A of Table 4) denoting the negative log of the concentration that reduces the proliferative response by 50%. […] When the single phase model was determined to be more appropriate, the values of pIC25 and pIC75 were not calculated or shown in the table.

Take `COc1cc2c(cc1O)/C(=N/OCc1cccc(C(F)(F)F)c1)C[C@@H]1[C@@H]2CC[C@]2(C)/C(=N/O)CC[C@@H]12` [CP-DM-3-118, 2-methoxy-6-(3-trifluoromethylbenzyloxy)iminoestrone-17-oxime]: the IC50 on Estrogen Receptor (ER) is 20.9 µM; in experiment [1], 2.95 µM.

In the case of `COc1cc2c(cc1O)/C(=N/OCc1ccccc1[N+](=O)[O-])C[C@@H]1[C@@H]2CC[C@]2(C)[C@@H](O)CC[C@@H]12` [CP-DM-3-124, 2-methoxy-6-(2-nitrobenzyloxy)iminoestradiol], the IC50 at Estrogen Receptor (ER) is 0.891 µM. In experiment [1], the IC50 was 0.0447 µM, the “HASM- Thr pIC25” value is given as 9.35 and the “HASM- Thr pIC75” value is 6.36.

For `COc1cc2c(cc1O)/C(=N/OCc1ccncc1)C[C@@H]1[C@@H]2CC[C@]2(C)[C@@H](O)CC[C@@H]12` [CP-DM-4-16, 2-methoxy-6-(4-pyridylmethyloxy)iminoestradiol], in experiment [1], the IC50 was 1.45 µM, the “HASM- Thr pIC25” value amounted to 6.57 and the “HASM- Thr pIC75” value amounted to 5.19.

As to `COc1cc2c(cc1O)/C(=N/OCc1ccc(C#N)cc1)C[C@@H]1[C@@H]2CC[C@]2(C)[C@@H](O)CC[C@@H]12` [CP-DM-4-37, 6-(4-cyanobenzyloxy)imino-2-methoxyestradiol], the IC50 at Estrogen Receptor (ER) is 6.46 µM; in experiment [1], 12.9 µM.

For `COc1cc2c(cc1O)/C(=N/OCc1cccc(C#N)c1)C[C@@H]1[C@@H]2CC[C@]2(C)/C(=N/O)CC[C@@H]12` [CP-DM-4-51, 2-methoxy-6-(3-cyanobenzyloxy)iminoestrone-17-oxime], the IC50 at Estrogen Receptor (ER) was 34.7 µM. In addition, in experiment [1], the IC50 is 4.37 µM, the “HASM- Thr pIC25” value is 5.46 and the “HASM- Thr pIC75” value amounted to 5.26.

In the case of `COc1cc2c(cc1O)/C(=N/OCc1cccc(C#N)c1)C[C@@H]1[C@@H]2CC[C@]2(C)[C@@H](O)CC[C@@H]12` [CP-DM-4-52, 2-methoxy-6-(3-cyanobenzyloxy)iminoestradiol], the figures for the IC50 (at Estrogen Receptor (ER); in experiment [1]) were 0.398 µM and 0.955 µM, respectively.

As to `COc1cccc(CO/N=C2\C[C@@H]3[C@H](CC[C@]4(C)[C@@H](O)CC[C@@H]34)c3cc(OC)c(O)cc32)c1` [CP-DM-4-62, 2-methoxy-6-(3-methoxybenzyloxy)iminoestradiol], the IC50 on Estrogen Receptor (ER) is 1 µM. Besides, in experiment [1], the IC50 was 2.19 µM, the “HASM- Thr pIC25” value was 5.69 and the “HASM- Thr pIC75” value worked out at 5.63.

Regarding `COc1cc2c(cc1O)/C(=N/OCc1cccc(OC(F)(F)F)c1)C[C@@H]1[C@@H]2CC[C@]2(C)[C@@H](O)CC[C@@H]12` [CP-DM-4-63, 2-methoxy-6-(3-trifluoromethoxybenzyloxy)iminoestradiol], the IC50 on Estrogen Receptor (ER) was 0.135 µM. In experiment [1], the IC50 is 0.347 µM, the “HASM- Thr pIC25” value was 7.70 and the “HASM- Thr pIC75” value came to 5.62.

Turning to `COc1cc2c(cc1O)/C(=N/OCc1ccc(OC(F)(F)F)cc1)C[C@@H]1[C@@H]2CC[C@]2(C)[C@@H](O)CC[C@@H]12` [CP-DM-4-64, 2-methoxy-6-(4-trifluoromethoxybenzyloxy)iminoestradiol], the IC50 at Estrogen Receptor (ER) is 1.58 µM. In addition, in experiment [1], the IC50 was 2.45 µM, the “HASM- Thr pIC25” value is 6.56 and the “HASM- Thr pIC75” value is 4.81.

With `COc1cccc(CO/N=C2\C[C@@H]3[C@H](CC[C@]4(C)/C(=N/O)CC[C@@H]34)c3cc(OC)c(O)cc32)c1` [CP-DM-4-66, 2-methoxy-6-(3-methoxybenzyloxy)iminoestrone-17-oxime], the IC50 in experiment [1] was 10 µM.

For the compound `COc1cc2c(cc1O)/C(=N/OCc1cccc(OC(F)(F)F)c1)C[C@@H]1[C@@H]2CC[C@]2(C)/C(=N/O)CC[C@@H]12` [CP-DM-4-67, 2-methoxy-6-(3-trifluoromethoxybenzyloxy)iminoestrone-17-oxime], the IC50 in experiment [1] was 10 µM.

On to `CO/N=C1\CC[C@H]2[C@@H]3C/C(=N\OCc4ccc([N+](=O)[O-])cc4)c4cc(O)c(OC)cc4[C@H]3CC[C@]12C` [CP-DM-4-75, 6-(4-nitrobenzyloxy)imino-2-methoxyestrone-17-methyloxime], for which, in experiment [1], the IC50 was 2.57 µM.

As to `COc1cc2c(cc1O)/C(=N/OCc1ccc(C)cc1)C[C@@H]1[C@@H]2CC[C@]2(C)/C(=N/O)CC[C@@H]12` [CP-DM-4-76, 2-methoxy-6-(4-methylbenzyloxy)iminoestrone-17-oxime], the IC50 in experiment [1] is 4.27 µM.

Consider `C[C@]12CC[C@@H]3c4ccc(O)cc4/C(=N/OCc4cc(F)cc(F)c4)C[C@H]3[C@@H]1C[C@@H](O)[C@@H]2O` [CP-DM-4-88, 6-(3,5-difluorobenzyloxy)iminoestriol], for which, in experiment [1], the IC50 was 15.8 µM.

With `C#C[C@]1(O)CC[C@H]2[C@@H]3C/C(=N\OCc4ccc([N+](=O)[O-])cc4)c4cc(O)ccc4[C@H]3CC[C@@]21C` [CP-DM-4-89, 6-(4-nitrobenzyloxy)imino-17-ethinyl-estradiol], the IC50 on Estrogen Receptor (ER) was 5.62 µM.

For the origin of these results see US20070275935A1, “Estratriene Derivatives” (priority 2003, published 2007).
